Key:
[1] = tested on: CD147 and MMPs mRNA expression; set-up: method as in PMID 35541353, doi:10.1016/j.phytol.2021.01.009; conditions: previously identified CTs from C. foetida; cited from earlier work
[2] = tested on: CD147 (extracellular matrix metalloproteinase inducer, EMMPRIN) mRNA expression; assay: q-PCR, mRNA expression of CD147 in PMA-induced THP-1 cells; type: cell-based, Human; conditions: 24 h; for CD147 mRNA inhibitory effect compared with YG (positive control) / suppression of the mRNA expression of CD147 (in words): 10 μM; for IC50: Homo sapiens, q-PCR 2^-ΔΔCt, 1-50 μM, read-out: IC50, suppression of mRNA expression of CD147
Experimental: (§1) Human monocytic THP-1 cells were cultured at 37 °C by DMEM/F12 medium supplemented with 10% fetal bovine serum and 1% penicillin/streptomycin in a humidified atmosphere of 5% CO2. Cells (5 × 10^5 to 10^6 per mL) were subjected to differentiation by 100 nM PMA for 24 h with DMEM/F12 serum medium. After incubation, the adherent cells were washed with DMEM/F12. Nonattached cells were removed by aspiration.
RevertAid™ First Strand cDNA Synthesis Kit was applied to extract total RNA of differentiated THP-1 cells treated with compounds 3–5, 9 and 11 (10 μM), along with 7 and 8 (1, 3, 10, 25, and 50 μM) for 24 h (5 × 10^5 cells per mL) following the manufacturer's instructions. cDNA was synthesized from the isolated total RNA based on the instruction of the PrimeScript RT reagent Kit. Briefly, PrimeScript RT Enzyme Mix 1 (0.5 μL), 5 × PrimeScriptTM Buffer (2 μL), oligo dt Primer (0.5 μL) and Random 6 mers (0.5 μL) were gently mixed with 1 μg RNA from each sample to a reaction volume of 10 μL with RNase free water, then incubated for 15 minutes at 37 °C to activate the reverse transcriptase enzyme. Finally, the reaction was stopped by 85 °C for 5 seconds.
After reverse transcription, cDNA was used to carry out real-time quantitative RT-PCR on ProFlex™ PCR system by SYBR Premix Ex Taq (Takara). The final volume of TR-PCR reaction is 25 μL, containing 12.5 μL SYBR green master mix, 1 μL cDNA, 0.5 μL each forward and reverse primer, and 10.5 μL nuclease-free water. For information of primers see Table S1. ^† Thermal cycling conditions for all genes were as follows: template pre-denaturation (10 min at 95 °C), denaturation (15 seconds at 95 °C), annealing and extension (30 seconds at 60 °C) for 40 cycles. Internal reference is GAPDH mRNA, and fold changes of mRNA expression for each target relative to GAPDH were calculated by the 2^−ΔΔCt method. Expression of mRNA is determined as the change in mRNA copy numbers relative to negative control cells (undifferentiated THP-1 cells). All the experiments were carried out in triplicate.

[3] = tested on: migration of PMA-induced THP-1 cells; assay: Wound-healing (scratch wound) migration assay; type: cell-based; conditions: Homo sapiens, 24 h incubation, read-out: IC50, decrease of number of migrated cells
Experimental: as §1
The differentiated THP-1 cells were seeded and grown into full confluence in 6 well plates. 2% FBS DMEM/F12 media was used to inactivated cell proliferation for 12 h, then wounded with pipette tips. Fresh DMEM/F12 medium with or without 1, 3, 10, 25, and 50 μM of 7 was added to the scratched monolayers. Images were took after 24 hours using a Nickon inverted microscope (magnification, 10×). The migration cell number of PMA-induced THP-1 cell group was defined as control. All the experiments were performed in triplicate.

MMP-9 mRNA expression = assay: q-PCR, mRNA expression of MMP-9 in PMA-induced THP-1 cells; type: cell-based, Human; conditions: 24 h
Experimental: as §1
(§2) RevertAid™ First Strand cDNA Synthesis Kit was applied to extract total RNA of differentiated THP-1 cells treated with compounds 3–5, 9 and 11 (10 μM), along with 7 and 8 (1, 3, 10, 25, and 50 μM) for 24 h (5 × 10^5 cells per mL) following the manufacturer's instructions. cDNA was synthesized from the isolated total RNA based on the instruction of the PrimeScript RT reagent Kit. […]
(§3) After reverse transcription, cDNA was used to carry out real-time quantitative RT-PCR on ProFlex™ PCR system by SYBR Premix Ex Taq (Takara). […] Internal reference is GAPDH mRNA, and fold changes of mRNA expression for each target relative to GAPDH were calculated by the 2^−ΔΔCt method. Expression of mRNA is determined as the change in mRNA copy numbers relative to negative control cells (undifferentiated THP-1 cells). […]

MMP-2 mRNA expression = assay: q-PCR, mRNA expression of MMP-2 in PMA-induced THP-1 cells; type: cell-based, Human; conditions: 24 h
Experimental: as §1, §2, §3

12β-hydroxycimiacerol [HC]
inhibitions on CD147 and MMPs mRNA expression (in words) [1]: notable inhibitions

CC1CC(C(O)C(C)(C)O)OC2(O)C(=O)C3(C)C4=CCC5C(C)(C)C(=O)CCC56CC46CC(O)C3(C)C12 [Compound 7, (23R,24S)-12β-Hydroxy-7(8)-en-3,15-dione-hydroxyshengmanol]
CD147 mRNA inhibitory effect compared with YG (positive control) [2]: more potent than YG | suppression of the mRNA expression of CD147 (in words) [2]: noticeably suppressed | IC50 [2]: 3.38 ± 0.27 µM | IC50 [3]: 5.87 ± 0.27 µM | IC50 (MMP-9 mRNA expression; Homo sapiens, q-PCR, 1-50 μM, read-out: IC50, down-regulation of mRNA expression of MMP-9): 11.6 ± 0.23 µM | IC50 (MMP-2 mRNA expression; Homo sapiens, q-PCR, 1-50 μM, read-out: IC50, down-regulation of mRNA expression of MMP-2): 6.32 ± 0.31 µM

CC1C(O)C2(OC3CC4(C)C5CCC6C(C)(C)C(O)CCC67CC57CCC4(C)C31)OC2C(C)(C)O (stereo not shown) [Compound 8, Actaeaepol]
CD147 mRNA inhibitory effect compared with YG (positive control) [2]: same level of activity as YG | suppression of the mRNA expression of CD147 (in words) [2]: noticeably suppressed | IC50 [2]: 8.25 ± 0.33 µM | decrease of MMP-9 mRNA expression (MMP-9 mRNA expression; 10 μM, P < 0.01): 25% | decrease of MMP-2 mRNA expression (MMP-2 mRNA expression; 10 μM, P < 0.01): 35%

yunnanterpene G [YG]
inhibitions on CD147 and MMPs mRNA expression (in words) [1]: notable inhibitions
